PMC4977753, “Inhibition of ADAM10 promotes the clearance of Aβ across the BBB by reducing LRP1 ectodomain shedding” (Fluids and Barriers of the CNS, 2016)

What was measured:
mice = conditions: 200 mg/kg i.p. once per day for 5 consecutive days; cited from earlier work
Method: PSAPP mice at 35 weeks of age were injected intraperitoneally with 200 mg/kg of GI254023X or vehicle (DMSO) once per day for 5 consecutive days. At this age, PSAPP mice display elevated levels of Aβ peptides in the brain [22]. […] One hour after the final injection, the mice were euthanatized and plasma and brain tissue were collected. The right hemisphere was used to examine the levels of soluble and insoluble Aβ40 and Aβ42 in the brain. ...

PSAPP mice [1] = assay: Tolerability of the GI254023X treatment regimen in PSAPP mice; type: in vivo; conditions: 200 mg/kg i.p. once per day for 5 days
Method: PSAPP mice at 35 weeks of age were injected intraperitoneally with 200 mg/kg of GI254023X or vehicle (DMSO) once per day for 5 consecutive days. At this age, PSAPP mice display elevated levels of Aβ peptides in the brain [22]. […] One hour after the final injection, the mice were euthanatized and plasma and brain tissue were collected. The right hemisphere was used to examine the levels of soluble and insoluble Aβ40 and Aβ42 in the brain. […] Quantification of Aβ40 and Aβ42 in the GS, GI, and plasma fractions was determined using an ELISA for human Aβ40 and Aβ42 (Invitrogen, USA) and expressed as ng of Aβ per μg total protein. […] LRP1 levels in the soluble brain fraction and plasma were assessed using a mouse ELISA for LRP1 (Cedar Lane Labs, USA). Soluble brain LRP1 was normalized to the total protein content in the brain homogenate as determined by the BCA protein assay (Thermo Scientific, USA). Soluble brain LRP1 levels were expressed as ng of LRP1 per mg protein. Plasma LRP1 levels were expressed as ng/ml. […] The sAPPα levels were normalized to the total protein content in the brain homogenate as determined by the BCA protein assay and expressed as ng of sAPPα per mg protein.

[2] = tested on: in vitro BBB model (HBMEC monolayer); assay: Permeability of paracellular marker Lucifer yellow-dextran across the in vitro BBB model (integrity control); type: cell-based, human; conditions: 10 kDa Lucifer yellow-dextran, any of the GI254023X concentrations, data not shown
[3] = tested on: in vitro BBB model (HBMEC monolayer); assay: Fluorescein-Aβ42 transit across an in vitro BBB model; type: cell-based, human; conditions: fluorescein-Aβ42 2 μM basolateral, 60 min, 37 °C, basolateral-to-apical, n = 3
Method: The impact of ADAM10 on Aβ42 transcytosis was assessed using an in vitro BBB model previously described by our group. HBMECs were seeded onto fibronectin-coated 24-well membrane inserts forming a polarized monolayer representing the BBB. Aβ transcytosis across the BBB was assessed by exposing the basolateral side (“brain”) to 2 μM fluorescein-Aβ42 (rPeptide, USA) and treating the apical side (“blood”) with the ADAM10-selective inhibitor GI254023X (0.1–1 μM). After 60 min of incubation at 37 °C, samples were collected from the apical compartment to assess the basolateral-to-apical transcytosis of fluorescein-Aβ across the BBB model.
Fig. 2 Fluorescin-Aβ42 transit across an in vitro BBB model following ADAM10 inhibition. Fluorescin-Aβ42 (2 μM) was exposed to the basolateral (“brain”) side of the in vitro BBB model, while various concentrations of the ADAM10 inhibitor GI254023X (0, 0.1, 1, and 10 μM) were exposed to the apical (“blood”) compartment. Following incubation at 37 °C, samples were collected from the […] at 60 min to assess the basolateral-to-apical transcytosis of fluorescin-Aβ42 across the BBB model. Values represent mean ± SEM (n = 3) and are expressed as the percentage change from control conditions. *p < 0.05; **p < 0.01; ***p < 0.001 as determined by one-way ANOVA followed by Tukey’s post hoc analysis

PSAPP mice [4] = assay: Aβ, soluble LRP1 and sAPPα levels in PSAPP mice following ADAM10 inhibition; type: in vivo, mouse; conditions: 200 mg/kg i.p. once per day for 5 days
Method: PSAPP mice at 35 weeks of age were injected intraperitoneally with 200 mg/kg of GI254023X or vehicle (DMSO) once per day for 5 consecutive days. At this age, PSAPP mice display elevated levels of Aβ peptides in the brain [22]. […] One hour after the final injection, the mice were euthanatized and plasma and brain tissue were collected. The right hemisphere was used to examine the levels of soluble and insoluble Aβ40 and Aβ42 in the brain. Briefly, the hemispheres were homogenized by sonication in 700 μl lysis buffer [M-PER + 1 % EDTA +0.2 % PMSF (Thermo Scientific, USA)] supplemented with Halt protease and phosphatase inhibitor cocktail (Thermo Scientific, USA) on ice before centrifugation at 14000g for 30 min at 4 °C. 100 μl of the resulting supernatant was mixed with 5 M guanidine in TRIS buffer resulting in the guanidine soluble (GS) fraction. For the guanidine insoluble (GI) fraction, 100 μl of the guanidine stock was combined with the original tissue pellet. Both GS and GI fractions were subsequently incubated at room temperature for 1 h and were mixed every 15 min. All samples were stored at −80 °C prior to analysis. Quantification of Aβ40 and Aβ42 in the GS, GI, and plasma fractions was determined using an ELISA for human Aβ40 and Aβ42 (Invitrogen, USA) and expressed as ng of Aβ per μg total protein. The left hemisphere was used to examine the levels of soluble LRP1 in the brain. Here, the hemisphere was homogenized using a Dounce homogenizer in ice cold in HBSS using the same procedure as the in vivo LRP1 shedding studies above. LRP1 levels in the soluble brain fraction and plasma were assessed using a mouse ELISA for LRP1 (Cedar Lane Labs, USA). Soluble brain LRP1 was normalized to the total protein content in the brain homogenate as determined by the BCA protein assay (Thermo Scientific, USA). Soluble brain LRP1 levels were expressed as ng of LRP1 per mg protein. Plasma LRP1 levels were expressed as ng/ml. In addition, sAPPα levels were examined in the brain homogenate of these same animals using an ELISA for sAPPα (IBL international, USA). The sAPPα levels were normalized to the total protein content in the brain homogenate as determined by the BCA protein assay and expressed as ng of sAPPα per mg protein.
Fig. 4 LRP1 shedding brain and plasma following ADAM10 modulation in a mouse model of AD. The ADAM10 inhibitor GI254023X (200 mg/kg) or vehicle (DMSO) was administered via intraperitoneal injection once per day for five consecutive days to PSAPP mice (35 weeks of age). One hour after the final injection, the brains and plasma was collected and the soluble brain fraction a and the plasma b was probed for LRP using an ELISA. Values represent mean ± SEM (n = 8–9 [soluble brain LRP1] or 5 [soluble plasma LRP1]) and are expressed as the amount of LRP per mg total protein or per ml. *p < 0.05 as determined by an unpaired t test
Fig. 5 Levels of sAPPα in the brain following ADAM10 modulation in a mouse model of AD. PSAPP mice (35 weeks of age) were treated in an acute 5-day treatment paradigm with ADAM10 inhibitor GI254023X (200 mg/kg) or vehicle (DMSO) which were administered via intraperitoneal injection. One hour after the final treatment, the brains were collected and sAPPα in the whole brain homogenate was probed using an sAPPα ELISA. Values represent mean ± SEM (n = 8–9) and are expressed as the amount of sAPPα per mg total protein. Statistical significance determined by an unpaired t test
Fig. 6 Aβ plasma levels following ADAM10 modulation in a mouse model of AD. The ADAM10 inhibitor GI254023X (200 mg/kg) or vehicle (DMSO) was administered via intraperitoneal injection once per day for five consecutive days to PSAPP mice (35 weeks of age). One hour after the final injection, the plasma was collected and probed for a Aβ40 and b Aβ42 by ELISA. Values represent mean ± SEM (n = 8–9) and are expressed as the amount of Aβ40 or Aβ42 per ml of plasma. […]

[5] = tested on: LRP1 shedding in human brain endothelial cells (HBMEC); assay: In vitro LRP1 shedding in HBMEC monolayers (LRP1 ELISA of extracellular media); type: cell-based; conditions: 48 h, 37 °C
Method: Human Brain Microvessel endothelial cells (HBMECs) (ScienCell, USA) were seeded at 50,000 cells per cm^2 onto fibronectin-coated 6-well plates as previously described by our group. When approximately 90 % confluent, cells were treated with Aβ42 (2 μM) or both Aβ42 and the ADAM10-selective inhibitor GI254023X (1 μM) (Sigma-Aldrich, USA) and incubated at 37 °C for 48 h. […] After the 48 h incubation, the extracellular media was collected and the level of soluble LRP1 was assessed using an ELISA for LRP1 (Cat# SEB010Hu, Cedar Lane Labs, USA).
Fig. 1 LRP1shedding in human brain endothelial cells (HBMEC) following ADAM10 inhibition. HBMEC monolayers were exposed to human Aβ42 (2 μM) alone, Aβ42 (2 μM) and the ADAM10 inhibitor GI254023X (1 μM) for 48 h at 37 °C. LRP shedding was assessed by examining LRP content in the extracellular media using an LRP1 ELISA. Values represent mean ± SEM (n = 3) and are expressed as ng of extracellular LRP1 per ml of media. *p < 0.05 as determined by one-way ANOVA followed by Tukey’s post hoc analysis

[6] = PSAPP mice, guanidine insoluble fraction, ELISA, n = 8-9, not statistically significant
[7] = PSAPP mice, guanidine soluble fraction, ELISA, n = 8-9, not statistically significant

Compound	ADAM10 activity in mice under this treatment regime (mice)	tolerability of treatment regime (mice)	tolerability of treatment regimen (appearance, behavior, weight loss) (PSAPP mice [1])	BBB permeability of the paracellular marker Lucifer yellow-dextran versus control [2]	transcytosis of fluorescein-Aβ across in vitro BBB model (trend) ([3]; GI254023X 0.1, 1, 10 μM apical)	increase of fluorescein-Aβ transcytosis across in vitro BBB model versus control ([3]; significant increases at concentrations higher than 1 μM GI254023X) [fold]	reduction of soluble LRP1 in the brain versus vehicle (PSAPP mice [4]; PSAPP mice 35 weeks, 1 h after final injection, soluble brain fraction, ELISA, n = 8-9, p < 0.05) [%]	reduction of insoluble Aβ40 in the brain versus vehicle (PSAPP mice [4]; [6]) [fold]	reduction of insoluble Aβ42 in the brain versus vehicle (PSAPP mice [4]; [6]) [fold]	reduction of soluble Aβ40 in the brain versus vehicle (PSAPP mice [4]; [7]) [fold]	reduction of soluble Aβ42 in the brain versus vehicle (PSAPP mice [4]; [7]) [fold]	LRP1 levels in the plasma versus vehicle (PSAPP mice [4]; PSAPP mice, plasma, ELISA, n = 5)	effect on Aβ42 plasma levels versus vehicle (PSAPP mice [4]; PSAPP mice, plasma, ELISA, n = 8-9)	increase of Aβ40 in the plasma versus vehicle (PSAPP mice [4]; PSAPP mice, plasma, ELISA, n = 8-9, significant) [fold]	level of sAPPα in the brain versus vehicle (PSAPP mice [4]; PSAPP mice, whole brain homogenate, sAPPα ELISA, n = 8-9)	effect on Aβ42-induced extracellular LRP1 shedding ([5]; Aβ42 2 μM plus GI254023X 1 μM, n = 3)	extracellular shedding of LRP1 compared to control conditions ([5]; Aβ42 2 μM, mean ± SEM n = 3, significant (p < 0.05))
CNC(=O)[C@@H](NC(=O)[C@H](CCCc1ccccc1)[C@H](C)N(O)C=O)C(C)(C)C [GI254023X]	effectively inhibit ADAM10 activity	well tolerated with no adverse effects reported	well tolerated	no significant difference	increased following GI254023X treatment in a dose dependent manner	≥ 1.25	60	1.20	1.20	1.15	1.25	not significantly different	not significant	1.45	No significant difference	completely abrogated the effect of Aβ42 on shedding	
Aβ42: human recombinant beta-amyloid 42 peptide, used to induce LRP1 shedding; fluorescein-labeled form used as transport probe																	twofold
